Measured values published in the NIST ThermoML archive (doi:10.1021/je900596d).

Conditions: for mass density: 303.28 K, Fluid (supercritical or subcritical phases), Vibrating tube method

FC(F)=C(F)C(F)(F)F [hexafluoropropene]
Conditions	vapor or sublimation pressure [kPa]
303.22 K, Liquid, Closed cell (Static) method	839.7

Conditions	mass density [kg/m3]
2.4 kPa	0.14
4.4 kPa	0.19
5.3 kPa	0.25
7.7 kPa	0.38
11 kPa	0.59
12.7 kPa	0.7
13.6 kPa	0.71
14.5 kPa	0.85
16.3 kPa	0.86
17.2 kPa	0.87
18.1 kPa	1.01
22.7 kPa	1.19
24.5 kPa	1.4
26.4 kPa	1.46
28.1 kPa	1.59
30 kPa	1.72
33.6 kPa	1.94
37.2 kPa	2.14
38.2 kPa	2.2
40 kPa	2.21
41.8 kPa	2.46
43.6 kPa	2.43
47.2 kPa	2.81
50.8 kPa	3.02
52.5 kPa	3.04
56 kPa	3.26
57.9 kPa	3.38
59.7 kPa	3.48
61.4 kPa	3.61
63.1 kPa	3.73
64.8 kPa	3.84
66.5 kPa	3.93
68.3 kPa	3.99
73.4 kPa	4.37
76 kPa	4.49
78.6 kPa	4.64
81.2 kPa	4.8
83.8 kPa	4.98
86.4 kPa	5.18
88.9 kPa	5.4
94.2 kPa	5.64
96.9 kPa	5.73
98.7 kPa	5.85
100.4 kPa	6.09
103.1 kPa	6.18
105.7 kPa	6.35
108.4 kPa	6.54
113.7 kPa	6.9
116.4 kPa	6.95
124.2 kPa	7.43
126.7 kPa	7.66
132.1 kPa	7.96
134.8 kPa	8.17
137.3 kPa	8.36
139.9 kPa	8.56
142.5 kPa	8.68
145.1 kPa	8.84
147.8 kPa	9.01
153 kPa	9.28
155.7 kPa	9.53
158.4 kPa	9.61
163.7 kPa	9.96
166.2 kPa	10.08
168.8 kPa	10.29
171.4 kPa	10.52
174 kPa	10.66
176.6 kPa	10.78
179.2 kPa	10.96
181.8 kPa	11.08
184.4 kPa	11.32
187 kPa	11.51
194.7 kPa	11.98
197.5 kPa	12.12
202.8 kPa	12.46
206.2 kPa	12.64
209.6 kPa	12.92
213 kPa	13.17
216.4 kPa	13.34
219.9 kPa	13.6
223.3 kPa	13.85
226.8 kPa	14.01
230.3 kPa	14.3
233.7 kPa	14.54
244.3 kPa	15.23
247.7 kPa	15.41
251.2 kPa	15.74
254.6 kPa	15.88
258.1 kPa	16.18
261.6 kPa	16.37
265.1 kPa	16.6
268.6 kPa	16.83
275.3 kPa	17.32
278.7 kPa	17.49
282.2 kPa	17.78
285.5 kPa	17.97
289 kPa	18.22
295.7 kPa	18.58
299.1 kPa	18.89
309 kPa	19.54
313.2 kPa	19.76
317.3 kPa	20.15
321.7 kPa	20.39
325.7 kPa	20.7
329.8 kPa	21.01
338 kPa	21.54
342 kPa	21.84
346.2 kPa	22.19
350.3 kPa	22.34
358.6 kPa	23.03
362.7 kPa	23.29
366.9 kPa	23.58
375.1 kPa	24.18
379.2 kPa	24.47
383.4 kPa	24.75
387.5 kPa	25.04
391.7 kPa	25.35
395.8 kPa	25.63
399.9 kPa	25.95
406.9 kPa	26.42
416.6 kPa	27.12
421.9 kPa	27.51
426.1 kPa	27.84
435.7 kPa	28.54
441.2 kPa	28.92
446.7 kPa	29.28
452.1 kPa	29.75
457.4 kPa	30.13
461.6 kPa	30.45
467 kPa	30.79
472.4 kPa	31.26
477.7 kPa	31.6
488.4 kPa	32.46
